Experimental data as given in patent US20200308170A1, “KRAS G12C INHIBITORS” (Mirati Therapeutics, Inc., priority 2017, published 2020).
pIC50: −log10 of the molar value.

Biological target: KRas G12C (Homo sapiens, UniProt P01116, G12C)
Test: Inhibition of KRas G12C in NCI-H358 cells measured by phosphorylated ERK (Phospho-ERK)
Format: cell-based
Conditions: 3 hours, 4 parameter fit, read-out: IC50 (pERK(Thr202/Tyr204) signal normalized with GAPDH)
Procedure: Cells were plated in poly-D-Lysine coated 96-well plates at a concentration of 50,000 cells/well and allowed to attach for 8-12 hours. Diluted compounds were then added at a final concentration of 0.5% DMSO. After 3 hours, the medium was removed, 150 μL of 4% formaldehyde was added and the plates were incubated for 20 minutes. The plates were washed with PBS, and permeabilized using 150 μL of ice cold 100% methanol for 10 minutes. Non-specific antibody binding to the plates was blocked using 100 μL Licor Blocking Buffer (Li-Cor Biotechnology, Lincoln Nebr.) for 1 hour at room temperature. Positive control samples and samples lacking cells were parallel processed with test samples as standards.
The amount Phospho-ERK was determined using an antibody specific for the phosphorylated form of ERK and compared to the amount of GAPDH. […] The plates were incubated for 2 hours at room temperature. The plates were washed with PBS+0.05% Tween 20.
Secondary antibodies used to visualize primary antibodies were added as follows: Anti-rabbit-680 diluted 1:1000 and Anti-mouse-800 diluted 1:1000 in Licor Block+0.05% Tween 20 and incubated for 1 hour at room temperature. The plates were washed with PBS+0.05% Tween 20. A 100 μL aliquot of PBS was added to each well and the plates were read on a LICOR AERIUS plate reader.
The pERK(Thr202/Tyr204) signal was normalized with the GAPDH signal and percent of DMSO control values were calculated. IC50 values were generated using a 4 parameter fit of the dose response curve.

Chain of KRas G12C (P01116 1-188 isoform P01116-2 G12C): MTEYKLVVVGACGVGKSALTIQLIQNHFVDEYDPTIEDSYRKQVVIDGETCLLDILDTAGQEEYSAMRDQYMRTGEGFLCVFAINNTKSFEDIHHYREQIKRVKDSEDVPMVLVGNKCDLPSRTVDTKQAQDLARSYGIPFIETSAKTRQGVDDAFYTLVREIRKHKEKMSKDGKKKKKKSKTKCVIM

Row | Compound | pIC50
1 | C=C(F)C(=O)N1CCN(c2nc(OCCc3nccn3C)nc3c2CCN(c2cccc4ccc(F)c(Cl)c24)C3)C[C@@H]1CC#N [Example 191] | 6.00 to 10.00
2 | C=C(F)C(=O)N1CCN(c2nc(OC3CN(CCC#N)C3)nc3c2CCN(c2cccc4ccc(F)c(Cl)c24)C3)C[C@@H]1CC#N [Example 157] | 5.00 to 6.00
3 | C=C(F)C(=O)N1CCN(c2nc(OCC(C)N3CCOCC3)nc3c2CCN(c2cccc4ccc(F)c(Cl)c24)C3)C[C@@H]1CC#N (some centres unmarked) [Example 177] | 6.00 to 10.00
4 | C=C(F)C(=O)N1CCN(c2nc(OCCN3C[C@@H]4CC3CO4)nc3c2CCN(c2cccc4ccc(F)c(Cl)c24)C3)C[C@@H]1CC#N [Example 193] | 6.00 to 10.00
5 | C=C(F)C(=O)N1CCN(c2nc(OCC3CCN3C(C)(C)C)nc3c2CCN(c2cccc4cccc(C)c24)C3)C[C@@H]1CC#N (stereo partly drawn) [Example 74, 2-((2S)-4-(2-((1-(tert-butyl)azetidin-2-yl)methoxy)-7-(8-methylnaphthalen-1-yl)-5,6,7,8-tetrahydropyrido[3,4-d]pyrimidin-4-yl)-1-(2-fluoroacryloyl)piperazin-2-yl)acetonitrile] | 6.00 to 10.00
6 | COC/C=C(\F)C(=O)N1CCN(c2nc(OCC34CCCN3CCC4)nc3c2CCN(c2cccc4ccc(F)c(Cl)c24)C3)C[C@@H]1CC#N [Example 206, (S, Z)-2-(4-(7-(8-chloro-7-fluoronaphthalen-1-yl)-2-((tetrahydro-1H-pyrrolizin-7a(5H)-yl)methoxy)-5,6,7,8-tetrahydropyrido[3,4-d]pyrimidin-4-yl)-1-(2-fluoro-4-methoxybut-2-enoyl)piperazin-2-yl)acetonitrile] | 6.00 to 10.00
7 | C=C(F)C(=O)N1CCN(c2nc(OC[C@@H]3C[C@@H](OC)CN3C(C)C)nc3c2CCN(c2cccc4ccc(F)c(Cl)c24)C3)C[C@@H]1CC#N [Example 181] | 6.00 to 10.00
8 | C=C(F)C(=O)N1CCN(c2nc(OC3CN4CCC3CC4)nc3c2CCN(c2cccc4ccc(F)c(Cl)c24)C3)C[C@@H]1CC#N (some centres unmarked) [Example 154] | 5.00 to 6.00
9 | C=C(F)C(=O)N1CCN(c2nc(OC[C@@H]3COCCN3Cc3ccccc3)nc3c2CCN(c2cccc4ccc(F)c(Cl)c24)C3)C[C@@H]1CC#N [Example 167] | 6.00 to 10.00
10 | C=C(F)C(=O)N1CCN(c2nc(OCC34CCCN3CCC4)nc3c2CCN(c2cccc4ccc(F)c(Cl)c24)C3)C[C@@H]1CC#N [Example 138, (S)-2-(4-(7-(8-chloro-7-fluoronaphthalen-1-yl)-2-((tetrahydro-1H-pyrrolizin-7a(5H)-yl)methoxy)-5,6,7,8-tetrahydropyrido[3,4-d]pyrimidin-4-yl)-1-(2-fluoroacryloyl)piperazin-2-yl)acetonitrile] | 6.00 to 10.00
11 | C=C(F)C(=O)N1CCN(c2nc(OCC34CCC(CC3)CN4C)nc3c2CCN(c2cccc4ccc(F)c(Cl)c24)C3)C[C@@H]1CC#N [Example 166] | 6.00 to 10.00
12 | C=C(F)C(=O)N1CCN(c2nc(OCC34CC(N(C)C)(C3)C4)nc3c2CCN(c2cccc4ccc(F)c(Cl)c24)C3)C[C@@H]1CC#N [Example 188] | 6.00 to 10.00
13 | N#CC[C@H]1CN(c2nc(OCC34CCCN3CCC4)nc3c2CCN(c2cccc4ccc(F)c(Cl)c24)C3)CCN1C(=O)/C(F)=C/CF [Example 207, (S, Z)-2-(4-(7-(8-chloro-7-fluoronaphthalen-1-yl)-2-((tetrahydro-1H-pyrrolizin-7a(5H)-yl)methoxy)-5,6,7,8-tetrahydropyrido[3,4-d]pyrimidin-4-yl)-1-(2,4-difluorobut-2-enoyl)piperazin-2-yl)acetonitrile] | 6.00 to 10.00
14 | C=C(F)C(=O)N1CCN(c2nc(OCCN(CC)CC)nc3c2CCN(c2cccc4ccc(F)c(Cl)c24)C3)C[C@@H]1CC#N [Example 159] | 6.00 to 10.00
15 | C=C(F)C(=O)N1CCN(c2nc(OCCNCC(F)F)nc3c2CCN(c2cccc4ccc(F)c(Cl)c24)C3)C[C@@H]1CC#N [Example 211, (S)-2-(4-(7-(8-chloro-7-fluoronaphthalen-1-yl)-2-(2-((2,2-difluoroethyl)amino)ethoxy)-5,6,7,8-tetrahydropyrido[3,4-d]pyrimidin-4-yl)-1-(2-fluoroacryloyl)piperazin-2-yl)acetonitrile] | 6.00 to 10.00
16 | CN1CC(F)(F)C[C@H]1COc1nc2c(c(N3CCN(C(=O)/C=C/CN4CC(F)C4)[C@@H](CC#N)C3)n1)CCN(c1cccc3cccc(Cl)c13)C2 [Example 57, 2-((S)-4-(7-(8-chloronaphthalen-1-yl)-2-(((S)-4,4-difluoro-1-methylpyrrolidin-2-yl)methoxy)-5,6,7,8-tetrahydropyrido[3,4-d]pyrimidin-4-yl)-1-((E)-4-(3-fluoroazetidin-1-yl)but-2-enoyl)piperazin-2-yl)acetonitrile] | 5.00 to 6.00

Other lines, results leading:

Row | pIC50 | Compound
17 | 5.00 to 6.00 | C=C(F)C(=O)N1CCN(c2nc(OC[C@@H]3CCCN3C)nc3c2CCN(c2cccc4ccc(Cl)c(Cl)c24)C3)C[C@@H]1CC#N [Example 137]
18 | 6.00 to 10.00 | C=C(F)C(=O)N1CCN(c2nc(OC[C@@H]3CCCN3C)nc3c2CCN(c2cccc4ccc(F)c(Cl)c24)C3)C[C@@H]1CC#N [Example 133]
19 | 6.00 to 10.00 | C=C(F)C(=O)N1CCN(c2nc(OCC3CCN3C(C)C)nc3c2CCN(c2cccc4ccc(F)c(Cl)c24)C3)C[C@@H]1CC#N (some centres unmarked) [Example 178]
20 | 5.00 to 6.00 | C=C(F)C(=O)N1CCN(c2nc(OC3CCCN(C(C)C)C3)nc3c2CCN(c2cccc4ccc(F)c(Cl)c24)C3)C[C@@H]1CC#N (some centres unmarked) [Example 152]
21 | 6.00 to 10.00 | C=C(F)C(=O)N1CCN(c2nc(OCC3N(C)CC3(C)C)nc3c2CCN(c2cccc4ccc(F)c(Cl)c24)C3)C[C@@H]1CC#N (some centres unmarked) [Example 187]
22 | 6.00 to 10.00 | C=C(F)C(=O)N1CCN(c2nc(OC[C@@H]3CCCN3C(C)C)nc3c2CCN(c2cccc4ccc(F)c(Cl)c24)C3)C[C@@H]1CC#N [Example 147, 2-((S)-4-(7-(8-chloro-7-fluoronaphthalen-1-yl)-2-(((S)-1-isopropylpyrrolidin-2-yl)methoxy)-5,6,7,8-tetrahydropyrido[3,4-d]pyrimidin-4-yl)-1-(2-fluoroacryloyl)piperazin-2-yl)acetonitrile]
23 | 6.00 to 10.00 | C=C(F)C(=O)N1CCN(c2nc(OC[C@@H]3C[C@@H](OC)CN3)nc3c2CCN(c2cccc4ccc(F)c(Cl)c24)C3)C[C@@H]1CC#N [Example 210, 2-((S)-4-(7-(8-chloro-7-fluoronaphthalen-1-yl)-2-(((2S,4R)-4-methoxypyrrolidin-2-yl)methoxy)-5,6,7,8-tetrahydropyrido[3,4-d]pyrimidin-4-yl)-1-(2-fluoroacryloyl)piperazin-2-yl)acetonitrile]
24 | 5.00 to 6.00 | C=C(F)C(=O)N1CCN(c2nc(OC3CN(C)C3)nc3c2CCN(c2cccc4ccc(F)c(Cl)c24)C3)C[C@@H]1CC#N [Example 168]
25 | 6.00 to 10.00 | C=C(F)C(=O)N1CCN(c2nc(OCC34CCC(CC3)N4C)nc3c2CCN(c2cccc4ccc(F)c(Cl)c24)C3)C[C@@H]1CC#N [Example 171]
26 | 6.00 to 10.00 | C=C(F)C(=O)N1CCN(c2nc(OCC3CCCO3)nc3c2CCN(c2cccc4ccc(F)c(Cl)c24)C3)C[C@@H]1CC#N (some centres unmarked) [Example 176]
27 | 6.00 to 10.00 | C=C(F)C(=O)N1CCN(c2nc(OC[C@@H]3C[C@@H](F)CN3C)nc3c2CCN(c2cccc4ccc(F)c(Cl)c24)C3)C[C@@H]1CC#N [Example 172]
28 | 6.00 to 10.00 | C=C(F)C(=O)N1CCN(c2nc(OC[C@@H]3C[C@@H](OC)CN3C)nc3c2CCN(c2cccc4ccc(F)c(Cl)c24)C3)C[C@@H]1CC#N [Example 170]
29 | 6.00 to 10.00 | C=C(F)C(=O)N1CCN(c2nc(OC[C@H]3CN(C)CCO3)nc3c2CCN(c2cccc4ccc(F)c(Cl)c24)C3)C[C@@H]1CC#N [Example 195]
